pIC50, pKi: −log10 of the molar value. Non-standard residues stand in square brackets, D forms with d. Residues, ends and D or L forms follow the SMILES beside them. dArg(NO2) = N=C(NCCC[C@@H](N)C(=O)O)N[N+](=O)[O-]
Experiments:
[1] = Inhibition of NMDA receptor in mouse medium spiny neurons by whole cell patch clamp assay
L-type calcium channel = L-type calcium channel (Mus musculus, UniProt Q01815+Q02789+Q99246+Q9JIS7); experiment: Inhibition of Voltage-dependent L-type calcium channel in mouse medium spiny neurons by whole cell patch clamp assay
Homo sapiens [2] = species: Homo sapiens; experiment: Selectivity ratio of IC50 for NTD-deleted GluN1/NTD-deleted GluN2D receptor (unknown origin) to IC50 for NTD-deleted GluN1/NTD-deleted GluN2A receptor (unknown origin)
Homo sapiens [3] = species: Homo sapiens; experiment: Selectivity ratio of IC50 for recombinant GluN2A/GluN2D receptor (unknown origin) to IC50 for GluN2C/GluN2D (unknown origin) receptor
Homo sapiens [4] = species: Homo sapiens; experiment: Selectivity ratio of IC50 for human eNOS to IC50 for human nNOS
Nitric oxide synthase 1 [5] = molecular target: Nitric oxide synthase 1 (Homo sapiens, UniProt P29475); experiment: Inhibition of human nNOS
[6] = Selectivity ratio of Ki for mouse iNOS to Ki for rat nNOS
[7] = Selectivity ratio of Ki for bovine eNOS to Ki for rat nNOS
[8] = Inhibition of bovine nNOS; design: species or system Bos taurus
Nitric oxide synthase 1 [9] = molecular target: Nitric oxide synthase 1 (Rattus norvegicus, UniProt P29476)
Homo sapiens [10] = experiment: Neuroprotective activity in Parkinson disease patient assessed as reduction of L-DOPA-induced dyskinesia administered as infusion treated prior to L-DOPA-challenge relative to control; format: functional; design: scale not given: the % may be the effect or the level left
Mus musculus = species: Mus musculus; experiment: Neuroprotective activity in amyotrophic lateral sclerosis mouse model expressing human SOD1 G93A mutant assessed as increase in life span relative to control; format: functional
Canis familiaris = experiment: Antialzheimer activity in Beagle dog assessed as reduction in CSF amyloid beta level at 5 mg/kg, po after 9 hrs relative to control; format: functional, Canis lupus familiaris; design: scale not given: the % may be the effect or the level left
[11] = molecular target: Microtubule-associated protein tau (Homo sapiens, UniProt P10636); experiment: Inhibition of recombinant tau (unknown origin) aggregation
[12] = Neuroprotective activity in rat Cortical neuron assessed as protection from glutamate-induced neurotoxicity treated after glutamate-challenge by lactate dehydrogenase assay; format: functional; conditions: cortical neurone
Huntingtin = Huntingtin (Homo sapiens, UniProt P42858); experiment: Inhibition of HD exon 1 fusion protein with 51 glutamine residues (unknown origin) aggregation expressed in Escherichia coli SURE after 16 hrs by Western blotting analysis
[13] = molecular target: Nitric oxide synthase, inducible (Homo sapiens, UniProt P35228); experiment: Inhibition of human iNOS
Nitric oxide synthase 3 = molecular target: T1, Nitric oxide synthase 3 (Homo sapiens, UniProt P29474); experiment: Inhibition of human eNOS
T1 sequence (P29474 whole entry): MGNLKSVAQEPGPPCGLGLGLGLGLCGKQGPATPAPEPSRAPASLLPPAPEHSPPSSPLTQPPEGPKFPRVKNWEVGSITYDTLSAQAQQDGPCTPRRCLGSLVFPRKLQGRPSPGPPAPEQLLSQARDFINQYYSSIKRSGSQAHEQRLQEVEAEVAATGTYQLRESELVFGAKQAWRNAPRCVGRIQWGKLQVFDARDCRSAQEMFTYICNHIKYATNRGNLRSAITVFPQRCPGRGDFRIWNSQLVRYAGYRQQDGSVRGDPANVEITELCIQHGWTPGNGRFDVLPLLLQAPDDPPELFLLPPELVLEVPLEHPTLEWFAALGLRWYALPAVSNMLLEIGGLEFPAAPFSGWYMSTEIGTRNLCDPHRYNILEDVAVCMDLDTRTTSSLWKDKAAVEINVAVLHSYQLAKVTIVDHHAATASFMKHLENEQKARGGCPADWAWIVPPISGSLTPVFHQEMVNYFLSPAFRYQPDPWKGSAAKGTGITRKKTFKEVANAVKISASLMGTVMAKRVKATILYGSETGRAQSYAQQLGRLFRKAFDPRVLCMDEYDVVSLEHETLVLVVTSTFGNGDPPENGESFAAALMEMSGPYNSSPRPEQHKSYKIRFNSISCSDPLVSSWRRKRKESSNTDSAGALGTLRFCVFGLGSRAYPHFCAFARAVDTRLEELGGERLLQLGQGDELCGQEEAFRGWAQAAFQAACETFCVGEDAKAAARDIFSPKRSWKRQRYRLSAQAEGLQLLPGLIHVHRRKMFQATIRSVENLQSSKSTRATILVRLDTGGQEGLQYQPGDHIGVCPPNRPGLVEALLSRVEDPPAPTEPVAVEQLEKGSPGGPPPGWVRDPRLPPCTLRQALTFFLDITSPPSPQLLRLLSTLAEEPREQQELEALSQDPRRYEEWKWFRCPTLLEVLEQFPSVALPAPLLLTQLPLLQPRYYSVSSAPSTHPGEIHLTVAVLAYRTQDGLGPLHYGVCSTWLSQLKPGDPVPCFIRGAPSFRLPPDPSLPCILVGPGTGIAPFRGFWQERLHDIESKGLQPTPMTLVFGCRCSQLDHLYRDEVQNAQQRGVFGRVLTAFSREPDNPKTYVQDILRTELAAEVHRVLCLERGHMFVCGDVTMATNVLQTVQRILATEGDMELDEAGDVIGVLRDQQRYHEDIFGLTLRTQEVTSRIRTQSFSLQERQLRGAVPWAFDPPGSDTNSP

Chain of Nitric oxide synthase 1 (Homo sapiens, UniProt P29475) (P29475 whole entry): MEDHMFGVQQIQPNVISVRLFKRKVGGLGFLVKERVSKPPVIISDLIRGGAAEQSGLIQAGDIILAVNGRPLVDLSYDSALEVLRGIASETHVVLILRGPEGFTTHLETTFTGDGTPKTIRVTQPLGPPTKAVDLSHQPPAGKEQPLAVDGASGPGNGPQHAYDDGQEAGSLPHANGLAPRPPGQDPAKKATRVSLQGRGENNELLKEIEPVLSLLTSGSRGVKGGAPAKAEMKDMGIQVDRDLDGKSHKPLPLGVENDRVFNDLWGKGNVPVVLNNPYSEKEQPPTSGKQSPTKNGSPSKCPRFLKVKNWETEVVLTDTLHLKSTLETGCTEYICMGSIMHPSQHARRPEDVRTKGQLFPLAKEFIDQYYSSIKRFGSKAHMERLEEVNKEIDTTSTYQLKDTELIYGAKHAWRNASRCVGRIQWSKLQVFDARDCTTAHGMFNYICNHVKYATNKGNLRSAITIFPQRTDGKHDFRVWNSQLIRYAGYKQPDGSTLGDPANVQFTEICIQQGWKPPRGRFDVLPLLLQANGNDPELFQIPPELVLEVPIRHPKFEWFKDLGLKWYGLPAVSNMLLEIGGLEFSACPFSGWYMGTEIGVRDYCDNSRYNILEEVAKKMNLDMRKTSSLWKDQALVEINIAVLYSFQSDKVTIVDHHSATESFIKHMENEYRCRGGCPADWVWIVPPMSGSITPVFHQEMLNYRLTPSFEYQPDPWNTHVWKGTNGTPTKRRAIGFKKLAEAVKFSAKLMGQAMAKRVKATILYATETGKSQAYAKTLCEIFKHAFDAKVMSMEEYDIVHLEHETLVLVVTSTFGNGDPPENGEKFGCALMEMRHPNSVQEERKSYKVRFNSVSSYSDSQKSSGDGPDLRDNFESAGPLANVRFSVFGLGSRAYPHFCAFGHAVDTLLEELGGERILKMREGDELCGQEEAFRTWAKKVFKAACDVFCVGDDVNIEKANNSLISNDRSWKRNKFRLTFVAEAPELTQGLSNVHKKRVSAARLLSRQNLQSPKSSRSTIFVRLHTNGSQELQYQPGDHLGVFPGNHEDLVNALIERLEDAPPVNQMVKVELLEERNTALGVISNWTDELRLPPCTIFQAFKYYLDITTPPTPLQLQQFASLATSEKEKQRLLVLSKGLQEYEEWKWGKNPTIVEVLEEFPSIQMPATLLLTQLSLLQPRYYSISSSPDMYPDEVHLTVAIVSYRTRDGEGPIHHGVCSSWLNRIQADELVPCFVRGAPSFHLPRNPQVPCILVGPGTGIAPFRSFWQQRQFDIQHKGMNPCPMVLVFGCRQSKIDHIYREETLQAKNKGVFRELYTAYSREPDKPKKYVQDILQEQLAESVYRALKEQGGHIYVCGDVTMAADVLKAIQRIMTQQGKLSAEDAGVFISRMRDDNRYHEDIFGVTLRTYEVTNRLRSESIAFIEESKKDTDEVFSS
Chain of Nitric oxide synthase, inducible (P35228 whole entry): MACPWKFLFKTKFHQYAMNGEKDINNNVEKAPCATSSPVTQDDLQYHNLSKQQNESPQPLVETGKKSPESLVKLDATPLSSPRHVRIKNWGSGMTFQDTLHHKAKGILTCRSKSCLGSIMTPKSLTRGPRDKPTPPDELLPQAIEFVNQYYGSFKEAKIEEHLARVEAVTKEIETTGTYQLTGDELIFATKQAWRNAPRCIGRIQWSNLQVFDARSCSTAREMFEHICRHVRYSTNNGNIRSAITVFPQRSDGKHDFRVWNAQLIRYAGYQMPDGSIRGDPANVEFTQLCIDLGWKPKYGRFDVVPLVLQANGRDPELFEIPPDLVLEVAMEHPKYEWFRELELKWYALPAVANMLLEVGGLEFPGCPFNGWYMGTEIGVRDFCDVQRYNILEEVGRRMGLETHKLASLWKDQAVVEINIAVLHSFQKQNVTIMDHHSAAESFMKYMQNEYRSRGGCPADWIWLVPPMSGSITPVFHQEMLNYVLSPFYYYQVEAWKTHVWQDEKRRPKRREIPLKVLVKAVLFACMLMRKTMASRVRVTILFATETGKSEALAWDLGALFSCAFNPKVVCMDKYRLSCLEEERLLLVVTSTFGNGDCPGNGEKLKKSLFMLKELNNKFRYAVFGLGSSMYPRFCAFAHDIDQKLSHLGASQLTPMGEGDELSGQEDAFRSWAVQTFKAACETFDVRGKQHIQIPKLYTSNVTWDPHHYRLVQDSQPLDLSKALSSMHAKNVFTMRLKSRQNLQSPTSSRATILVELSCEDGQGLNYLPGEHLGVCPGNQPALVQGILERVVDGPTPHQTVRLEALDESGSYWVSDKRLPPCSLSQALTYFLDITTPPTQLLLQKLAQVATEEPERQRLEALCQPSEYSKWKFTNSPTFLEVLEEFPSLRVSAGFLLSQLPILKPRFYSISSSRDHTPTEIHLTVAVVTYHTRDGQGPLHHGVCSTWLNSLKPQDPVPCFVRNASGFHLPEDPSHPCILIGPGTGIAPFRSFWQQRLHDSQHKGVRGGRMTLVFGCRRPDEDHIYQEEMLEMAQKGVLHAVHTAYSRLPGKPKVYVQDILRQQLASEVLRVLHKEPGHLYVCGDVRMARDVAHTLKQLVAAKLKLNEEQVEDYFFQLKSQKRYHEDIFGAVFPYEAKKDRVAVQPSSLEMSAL
Chain of Nitric oxide synthase 1 (Rattus norvegicus, UniProt P29476) (P29476 whole entry, the tested form may be a part): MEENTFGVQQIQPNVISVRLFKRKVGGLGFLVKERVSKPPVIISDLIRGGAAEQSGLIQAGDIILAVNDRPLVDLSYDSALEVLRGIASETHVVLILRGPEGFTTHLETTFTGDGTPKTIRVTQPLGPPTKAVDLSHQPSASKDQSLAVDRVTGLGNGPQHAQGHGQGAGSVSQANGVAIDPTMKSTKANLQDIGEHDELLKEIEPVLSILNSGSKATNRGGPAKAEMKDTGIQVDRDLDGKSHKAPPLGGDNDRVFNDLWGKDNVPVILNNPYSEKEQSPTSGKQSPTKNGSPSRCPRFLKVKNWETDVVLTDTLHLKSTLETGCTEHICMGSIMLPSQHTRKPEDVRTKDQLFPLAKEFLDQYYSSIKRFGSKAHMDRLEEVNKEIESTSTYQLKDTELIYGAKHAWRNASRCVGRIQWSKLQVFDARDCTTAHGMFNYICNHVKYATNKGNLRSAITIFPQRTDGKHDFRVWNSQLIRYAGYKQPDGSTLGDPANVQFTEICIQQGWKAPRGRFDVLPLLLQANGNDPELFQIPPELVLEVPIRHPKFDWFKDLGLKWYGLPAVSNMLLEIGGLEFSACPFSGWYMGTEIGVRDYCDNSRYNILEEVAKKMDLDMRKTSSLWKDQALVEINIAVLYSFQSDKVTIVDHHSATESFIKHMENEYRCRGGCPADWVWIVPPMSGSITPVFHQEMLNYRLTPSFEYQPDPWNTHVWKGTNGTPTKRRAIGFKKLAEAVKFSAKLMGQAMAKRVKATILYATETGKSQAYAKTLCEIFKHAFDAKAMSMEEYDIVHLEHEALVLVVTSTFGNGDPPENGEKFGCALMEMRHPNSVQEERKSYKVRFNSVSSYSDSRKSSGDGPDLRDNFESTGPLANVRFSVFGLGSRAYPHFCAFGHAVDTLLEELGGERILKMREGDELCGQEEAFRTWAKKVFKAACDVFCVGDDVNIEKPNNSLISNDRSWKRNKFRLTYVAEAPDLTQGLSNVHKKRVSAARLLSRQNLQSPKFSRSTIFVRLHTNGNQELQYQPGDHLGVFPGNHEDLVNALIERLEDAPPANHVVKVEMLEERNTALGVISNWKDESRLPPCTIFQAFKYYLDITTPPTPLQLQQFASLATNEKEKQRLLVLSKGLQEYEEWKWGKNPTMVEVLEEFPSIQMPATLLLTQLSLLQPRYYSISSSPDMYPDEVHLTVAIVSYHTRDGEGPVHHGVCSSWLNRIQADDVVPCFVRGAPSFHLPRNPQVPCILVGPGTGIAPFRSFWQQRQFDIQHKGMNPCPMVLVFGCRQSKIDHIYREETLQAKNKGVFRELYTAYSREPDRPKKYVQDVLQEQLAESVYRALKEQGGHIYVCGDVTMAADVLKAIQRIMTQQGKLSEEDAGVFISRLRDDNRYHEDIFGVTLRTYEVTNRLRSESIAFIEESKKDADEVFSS
Chain of Microtubule-associated protein tau (P10636 whole entry): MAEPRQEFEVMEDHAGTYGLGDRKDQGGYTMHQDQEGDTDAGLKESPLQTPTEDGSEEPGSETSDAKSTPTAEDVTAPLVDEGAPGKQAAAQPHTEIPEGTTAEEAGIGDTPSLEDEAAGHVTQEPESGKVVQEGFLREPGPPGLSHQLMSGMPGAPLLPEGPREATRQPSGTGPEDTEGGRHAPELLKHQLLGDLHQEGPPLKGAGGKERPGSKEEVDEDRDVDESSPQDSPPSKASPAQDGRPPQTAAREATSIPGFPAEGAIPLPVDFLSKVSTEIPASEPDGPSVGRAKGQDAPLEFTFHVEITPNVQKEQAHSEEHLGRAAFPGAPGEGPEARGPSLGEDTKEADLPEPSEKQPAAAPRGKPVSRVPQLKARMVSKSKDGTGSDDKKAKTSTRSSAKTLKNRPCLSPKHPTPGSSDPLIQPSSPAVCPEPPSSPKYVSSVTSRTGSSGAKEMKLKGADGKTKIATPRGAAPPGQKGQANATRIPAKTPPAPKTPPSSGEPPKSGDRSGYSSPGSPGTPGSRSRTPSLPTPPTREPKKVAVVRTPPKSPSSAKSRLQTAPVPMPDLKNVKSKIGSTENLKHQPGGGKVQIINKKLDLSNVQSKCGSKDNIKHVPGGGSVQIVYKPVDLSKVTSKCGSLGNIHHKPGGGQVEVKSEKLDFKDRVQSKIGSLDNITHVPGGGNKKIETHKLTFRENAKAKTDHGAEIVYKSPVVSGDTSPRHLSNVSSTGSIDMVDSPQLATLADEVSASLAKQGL

SMILES: Cc1ccc2c(c1)c1c(n2CCc2ccc(C)nc2)CCN(C)C1 [LATREPIRDINE]
- pIC50 [1]: 5.00
- IC50 (L-type calcium channel): 50 µM

SMILES: O=C(O)c1cc2cc(Br)ccc2oc1=O
- Ratio IC50 (Homo sapiens [2]): 23

SMILES: Cc1ccc2[nH]c(=O)c(C3=NN(C(=O)CCC(=O)O)C(c4ccc(Br)cc4)C3)c(-c3ccccc3)c2c1 (stereo not given)
- Ratio IC50 (Homo sapiens [3]): > 50

SMILES: CN(C)CCOc1ccc(-c2cccc(N)n2)c2c1CCCC2
- Ratio IC50 (Homo sapiens [4]): 50
- pIC50 (Nitric oxide synthase 1 [5]): 7.15

SMILES: N=C(NCCC[C@H](N)C(=O)O)N[N+](=O)[O-] [NITROARGININE]
- Ratio Ki [6]: 293
- Ratio Ki [7]: 11

SMILES: C=CNC(=N)NCCC[C@H](N)C(=O)O
- Ratio Ki [6]: 11
- pKi [8]: 6.70
- Ratio Ki [7]: 35

SMILES: CC(=O)CN1CCN(CCc2ccc(-c3cccc(N)n3)cc2)CC1
- Ratio IC50 (Homo sapiens [4]): 6
- pIC50 (Nitric oxide synthase 1 [5]): 6.85

SMILES: COC(=O)[C@@H](CCCNC(=N)N[N+](=O)[O-])NC(=O)[C@H](N)Cc1ccccc1 (H-[dF]-[dArg(NO2)]-OMe)
- Ratio Ki [6]: 1800
- Ratio Ki [7]: 2.6
- pKi (Nitric oxide synthase 1 [9]): 5.72

SMILES: C[C@@H]([C@@H](O)c1ccc(O)cc1)N1CCC(O)(c2ccccc2)CC1 [TRAXOPRODIL]
- Activity (Homo sapiens [10]): 30%

SMILES: [O-][n+]1cccc(/C(Cl)=N/OC[C@H](O)CN2CCCCC2)c1 [ARIMOCLOMOL]
- Activity (Mus musculus): 22%

SMILES: C[C@@]1(c2cc(-c3cncnc3)c(F)cc2F)CCSC(N)=N1 [LY-2811376]
- Activity (Canis familiaris): 70%

SMILES: N=C(Nc1ccc(CCNCCc2cccc(Cl)c2)cc1)c1cccs1
- Ratio IC50 (Homo sapiens [4]): 100

SMILES: N/N=C(\N)NCCC[C@H](N)C(=O)O
- Ratio Ki [6]: 10
- pKi [8]: 6.52
- Ratio Ki [7]: 8.3

SMILES: Cc1cc2nc3ccc(N(C)C)cc3[s+]c2cc1N [TOLONIUM CHLORIDE]
- pKi [11]: 7.16

SMILES: C[C@@H](CN1CCC(Cc2ccccc2)CC1)[C@@H](O)c1ccc(O)cc1
- pIC50 [12]: 6.40

SMILES: CC(C(O)c1ccc(O)cc1)N1CCC(Cc2ccccc2)CC1 (stereo not given) [IFENPRODIL]
- pIC50 [12]: 5.46

SMILES: COC(=O)c1ccc(C(=O)Nc2nc3ccc(C(=O)Nc4ccccc4)cc3s2)cc1
- pIC50 (Huntingtin): 5.92

SMILES: NC(=Nc1ccc(CCNCCc2cccc(Cl)c2)cc1)c1cccs1
- pIC50 [13]: 5.30
- pIC50 (Nitric oxide synthase 1 [5]): 7.46
- pIC50 (Nitric oxide synthase 3): 5.46

Source: ChEMBL document CHEMBL2331315, “Target- and mechanism-based therapeutics for neurodegenerative diseases: strength in numbers” (J Med Chem, 2013)
